We go through one compound from ChEMBL document CHEMBL1770148, “Dual function inhibitors of relevance to chronic obstructive pulmonary disease” (Bioorg Med Chem Lett, 2011).

Experiment [1] deals with T1, Myeloblastin (Homo sapiens) (UniProt P24158).
T1 sequence (whole entry): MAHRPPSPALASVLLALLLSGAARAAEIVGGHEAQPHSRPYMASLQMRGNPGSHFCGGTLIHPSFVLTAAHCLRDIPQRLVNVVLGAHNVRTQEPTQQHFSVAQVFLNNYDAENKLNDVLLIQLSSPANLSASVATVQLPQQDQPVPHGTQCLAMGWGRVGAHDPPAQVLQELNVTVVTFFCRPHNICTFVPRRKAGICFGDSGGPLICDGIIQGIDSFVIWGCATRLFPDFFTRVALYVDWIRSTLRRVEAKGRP
The experiment is described as follows: Inhibition of proteinase 3 after 30 mins.

Experiment [2] concerns the target T2, Caspase-1 (Homo sapiens) (UniProt P29466).
T2 sequence (whole entry): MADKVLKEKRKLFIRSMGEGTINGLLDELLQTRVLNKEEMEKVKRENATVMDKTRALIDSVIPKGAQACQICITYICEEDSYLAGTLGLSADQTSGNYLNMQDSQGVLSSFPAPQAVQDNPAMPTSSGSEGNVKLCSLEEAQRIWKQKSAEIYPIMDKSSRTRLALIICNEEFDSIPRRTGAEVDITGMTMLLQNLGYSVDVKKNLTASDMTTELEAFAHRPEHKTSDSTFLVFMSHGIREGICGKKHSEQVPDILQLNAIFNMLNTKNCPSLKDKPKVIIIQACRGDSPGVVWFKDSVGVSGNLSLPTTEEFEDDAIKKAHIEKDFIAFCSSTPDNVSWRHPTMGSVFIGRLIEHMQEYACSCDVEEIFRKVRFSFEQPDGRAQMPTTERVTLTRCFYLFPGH
In words: Inhibition of caspase 1 by Z-Asp-CH2DCB released from compound using […] substrate after 2 mins in presence of human neutrophil elastase.

Experiment [3] concerns the target T3, Neutrophil elastase (Homo sapiens) (UniProt P08246).
T3 sequence (whole entry): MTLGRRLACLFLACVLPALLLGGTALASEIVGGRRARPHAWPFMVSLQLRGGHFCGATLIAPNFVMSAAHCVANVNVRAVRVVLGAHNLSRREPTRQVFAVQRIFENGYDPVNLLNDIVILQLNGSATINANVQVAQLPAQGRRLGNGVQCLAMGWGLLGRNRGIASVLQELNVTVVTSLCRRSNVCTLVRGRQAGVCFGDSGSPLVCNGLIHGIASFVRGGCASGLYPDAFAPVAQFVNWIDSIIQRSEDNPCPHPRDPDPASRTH
The experiment is described as follows: Inhibition of human neutrophil elastase assessed as remaining activity using MeOSuc-AAPV-pNA substrate at 10.5 uM. To be noted: TDE = time-dependent effect.

In experiment [4] the target is T2, Caspase-1 (Homo sapiens). In words: Inhibition of caspase 1 using […] substrate.

Active and inactive are the calls of the source. The rule behind the calls is not given here.

Turning to `CCC[C@H]1C(=O)N(COC(=O)C[C@H](NC(=O)OCc2ccccc2)C(=O)COC(=O)c2c(Cl)cccc2Cl)S(=O)(=O)N1C`, the inhibition result (in experiment [1]; on Caspase-1 (Homo sapiens) [4]) was “inactive” each time. Also, the inhibition entry at Caspase-1 (Homo sapiens) [2] is “Active”. Moreover, in experiment [3], the inhibition entry was “tde”.
